# Data taken from patent US10149478B2, “Biologically active formulation” (Endura S.P.A., priority 2005, dated 2018).
# Test system: Bemisia tabaci (whitely) biotype B
# Test: Leaf dip bioassay, mortality assay for insecticide compounds (Example 20)
# Assay type: in vivo
# Details: for LC50% a.i. (*): quantity of pure insecticide achieving 50% mortality; for resistance factor: relative to non-resistant insects
# Method: The “leaf dip bioassay” used for testing the activity of insecticides against Bemisia tabaci (whitely) biotype B, was similar to that described by Cahill, M et al, Bull. Entomol. Res. 85, 181-187, 1995.
# Cotton plants (Gossypium hirsutum L.) were grown without any exposure to the insecticides. The leaves were cut up into disc shapes and immersed in an aqueous solution of insecticide containing 0.01% of Agral then left to dry at 25° C.
# Control leaves were immersed in Agral and distilled water only.
# About 20 adult insects were placed onto the small discs of treated cotton leaf.
# The insects were allowed to feed and maximum mortality was evaluated at 24 and 48 hours.
# LC50% a.i. and LC99% a.i indicate the quantity of active ingredient (i.e pure insecticide) able to achieve mortality for 50% and 99% of the insects tested.
# [1] = adults on treated cotton leaf discs, maximum mortality evaluated at 24 and 48 hours
Compound,LC50% a.i. (*) [1],"LC99% a.i. (*) (quantity of pure insecticide achieving 99% mortality, adults on treated cotton leaf discs, maximum mortality evaluated at 24 and 48 hours)",resistance factor
C/C(=N\C#N)N(C)Cc1ccc(Cl)nc1 [Acetamiprid],0.00038 ppm,0.098 ppm,21 times
O=[N+]([O-])NC1=NCCN1Cc1ccc(Cl)nc1 [Imidacloprid],4.7 ppm,,2336 times
